Reference: the METLIN SMRT retention time set (Domingo-Almenara et al. 2019)

Assay: gradient 5% acetonitrile 3 min, to 50% in 2 min, to 85% in 15 min, held 3 min, 100 µL/min
Details: column: Zorbax Extend-C18 2.1 x 50 mm; eluents: water / acetonitrile, 0.1% formic acid
Outline: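 Pure standards were run in mixtures of ~100 molecules by HPLC coupled to a quadrupole time-of-flight mass spectrometer. The column was a Zorbax Extend-C18 (2.1 × 50 mm, 1.8 μm) at 100 μL/min, with water and acetonitrile each containing 0.1% formic acid, in positive and negative ionization mode. Dead and dwell volumes were 40 μL and 900 μL. Retention time was taken from computationally picked adduct peaks, each manually inspected, with data collected over 3 months.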

Row | RP-LC retention time [s] | SMILES
1 | 786 | Cc1nn(C)cc1CNC(=O)c1cnn2c(C(F)F)cc(-c3ccccc3)nc12
2 | 665 | Cc1ccc(N2CCN(CC(O)c3ccc4c(c3)OCO4)CC2)cc1 (stereo not drawn)
3 | 634 | c1ccc2c(c1)Nc1ccncc1S2
4 | 710 | CCC(C)NC(=O)C1c2cc(OC)c(OC)cc2C(=O)N(C)C1c1ccc(OC)c(OC)c1 (stereo not drawn)
5 | 1000 | O=C(Cn1cccc1-c1nc(-c2ccc3c(c2)OCO3)no1)Nc1cc(F)ccc1F
6 | 668 | COc1ncccc1CNC(=O)NCc1ccc(F)cc1
7 | 643 | Cn1c(=O)n(CCN2CCOCC2)c(=O)c2c1nc1n2CCCN1c1ccc(Cl)cc1
8 | 912 | Cc1ccc(CNC(=O)C2CCN(S(C)(=O)=O)c3cc(C)ccc3O2)cc1 (stereo not drawn)
9 | 841 | COc1ccc(F)cc1S(=O)(=O)N1CC(c2nc(-c3ccsc3)nn2C)C1
10 | 1020 | CCCCn1cc(S(=O)(=O)NCc2cccc(Cl)c2)c2cccnc21
11 | 770 | CCOc1cccc(-c2noc(Cn3ccn4nc(-c5cccc(OC)c5)cc4c3=O)n2)c1
12 | 727 | O=C(NCCc1ccc(Cl)cc1)C1CCN(C(=O)c2cccn2-c2cccnc2)CC1
13 | 716 | CCN1CCCn2cc(S(=O)(=O)Nc3cccc(F)c3)cc2C1=O
14 | 802 | CCn1cc(CCNC(=O)Nc2ccc(Br)cc2)c2cccnc21
15 | 880 | CCCn1cc(C(=O)NC(C)CC)c2nn(-c3ccccc3)c(=O)c-2c1 (stereo not drawn)
16 | 1100 | COc1ccc(-n2ncc3c(=O)n(Cc4nc(-c5ccc(OC(F)(F)F)cc5)no4)cnc32)cc1
17 | 1140 | Cc1nc2cc(-c3noc(-c4cccc(Cl)c4)n3)ccc2n(C)c1=O
18 | 613 | Cc1cc(C)cc(NC(=O)C(=O)NCC(c2ccc3c(c2)OCO3)N2CCOCC2)c1 (stereo not drawn)
19 | 607 | CCn1c(=O)cc(SCC(=O)N2CCN(c3ccccn3)CC2)c2ccccc21
20 | 885 | Cc1cccc(-c2nnc(-c3cccc(S(=O)(=O)N4CCOCC4)c3)o2)c1
21 | 1210 | COc1ccc(C)cc1NS(=O)(=O)c1cc(-c2cc(C(F)(F)F)on2)sc1C
22 | 670 | Cc1noc(C2CCCCN2C(=O)c2ccoc2)n1 (stereo not drawn)

Row | RP-LC retention time [s] | SMILES
23 | 996 | Cc1ccccc1-c1noc(CN2N=NC3C(=O)N(c4cccc(Cl)c4)C(=O)C32)n1 (stereo not drawn)
24 | 702 | CN(C)C(=O)CN1C(=O)COc2ccc(C(=O)N3CCN(c4ccccc4)CC3)cc21
25 | 577 | O=[N+]([O-])c1ccccc1OCC(O)CN1CCN(c2ccccc2F)CC1 (stereo not drawn)
26 | 726 | CC1CCC(NC(=O)c2ccc(Cn3cncn3)cc2)CC1 (stereo not drawn)
27 | 719 | CN1C(=O)C(F)=C[C@]2(C)[C@H]3CC[C@]4(C)[C@@H](C(=O)NCc5nc6ncccc6[nH]5)CC[C@H]4[C@@H]3CC[C@@H]12
28 | 722 | CCc1noc(COC2CCCN(C(=O)NCc3ccco3)C2)n1 (stereo not drawn)
29 | 956 | Cc1ccc(Cn2nnc(C(=O)N3CCSCC3)c2-n2cccc2)cc1
30 | 694 | O=C(NCc1ccccc1)C1CCN(S(=O)(=O)c2cc(C(=O)N3CCOCC3)cs2)CC1
31 | 875 | O=C(c1ccco1)N1CCCC1c1nc(-c2ccc(F)cc2)no1 (stereo not drawn)
32 | 915 | Cc1cc(C)c(C)c(S(=O)(=O)Nc2ccc3c(c2)OCO3)c1C
33 | 653 | COc1cccc(CNC(=O)Nc2c(-c3ccccc3)nc3ccccn23)c1
34 | 970 | CCn1c(C(=O)N2CCCC(C(=O)N3CCN(c4ccccc4)CC3)C2)cc2sccc21 (stereo not drawn)
35 | 559 | Cc1ccc(CC(=O)Nc2ccc(-c3nc(Cn4nc(C)cc4C)c(C)o3)cc2)cc1
36 | 735 | NS(=O)(=O)c1cccnc1Nc1ccc2c(c1)OCCO2
37 | 730 | O=C(c1ccc2[nH]ccc2c1)N1C[C@@H]2C[C@H]1C[C@@H]2NS(=O)(=O)c1ccccc1
38 | 790 | CCn1c(=O)c(C(=O)NCc2ccc(F)cc2)nc2cccnc21
39 | 748 | COc1ccc(-c2cn3cccnc3n2)cc1NC(=O)c1cccc(Br)c1
40 | 884 | O=S(=O)(c1ccc(Cl)cc1)c1ccc(N2CCN(c3ncccn3)CC2)nn1
41 | 666 | COc1ccc(CN(Cc2ccccc2)Cc2cc(=O)n3ccccc3n2)cc1
42 | 865 | COc1ccc(-c2cc(C(=O)N3CCCC3c3cc(C)on3)on2)cc1 (stereo not drawn)
43 | 670 | CCN1CCN(C(=O)CN2C(=O)C3CCCCN3c3ccc(S(=O)(=O)N(CC)CC)cc32)CC1 (stereo not drawn)
44 | 677 | Cc1ccc(-c2ccc(=O)n(Cc3noc(C(=O)NCCN4CCC(C)CC4)n3)n2)cc1

Row | RP-LC retention time [s] | SMILES
45 | 572 | CC(=O)N1CC(C)Oc2ccc(S(=O)(=O)N3CCC(c4ccncc4)CC3)cc21 (stereo not drawn)
46 | 740 | Cc1nc(C2CCOCC2)n(C2CCN(S(=O)(=O)c3cc(F)cc(F)c3)C2)n1 (stereo not drawn)
47 | 832 | COc1ccc(-c2nc3nccc(-c4ccsc4)n3n2)c(OC)c1
48 | 1180 | Cn1nccc1-c1cccc(-c2noc(-c3ccccc3Br)n2)c1
49 | 908 | O=C(Nc1ccc(F)cc1)c1ccc(Cl)s1
50 | 986 | O=C(Cn1cnc2c(sc3nc(-c4ccccc4)ccc32)c1=O)Nc1ccccc1
51 | 1250 | CN(C)c1cccc(-c2nc(-c3ccc(S(=O)(=O)N4CCCC4)cc3)no2)c1
52 | 583 | COc1ccccc1-c1[nH]ncc1CN1C[C@@H]2CCN(S(C)(=O)=O)C[C@]2(CF)C1
53 | 863 | COc1ccc(OC)c(NC(=O)Nc2cc(F)c3nc(N4CCOCC4)ccc3c2)c1
54 | 1050 | O=C(Nc1cc(Cl)ccc1F)c1cnc(-c2ccc(F)cc2)nc1-c1ccncc1
55 | 806 | O=C(Nc1ccc(F)cc1F)N1CCC(n2cnc3cc(Cl)ccc3c2=O)CC1
56 | 890 | CN1C(=C=Cc2cc(I)c(O)c(I)c2)C(C)(C)c2ccccc21
57 | 604 | CCCNC(=O)C1CCN(c2nc3ccc(-c4cccnc4)nc3s2)CC1
58 | 1140 | COc1ccc2c(c1)-c1nc(NC(=O)c3ccccc3Br)sc1CC2
59 | 694 | COc1ccc(CCNC(=O)C2CCN(C(=O)C3Sc4ccccc4NC3=O)CC2)cc1OC (stereo not drawn)
60 | 859 | CCc1ccc(NC(=O)C2CCCN2S(=O)(=O)c2ccc3c(c2)NC(=O)CO3)cc1 (stereo not drawn)
61 | 666 | COc1ccc(NC(=O)C2CCCN(c3nnc4ccc(Cl)cn34)C2)cc1 (stereo not drawn)
62 | 1010 | CCOC(=O)Cn1c(=O)c2c(nc3n2CC(C)CN3c2ccc(Br)cc2)n(C)c1=O (stereo not drawn)
63 | 717 | CC(=O)N1CCc2cc(N3CC(C(=O)Nc4cc(C)ccc4C)CC3=O)ccc21 (stereo not drawn)
64 | 950 | COc1ccc(CNC(=O)Cn2cnc3c(sc4nc(-c5ccccc5)ccc43)c2=O)cc1
65 | 761 | CCn1cnc(S(=O)(=O)N2CCC(C(=O)NCCC3=CCCCC3)CC2)c1
66 | 769 | CCSc1nnc(NC(=O)C2CCCN(Cc3nc(-c4cccs4)no3)C2)s1 (stereo not drawn)

Row | RP-LC retention time [s] | SMILES
67 | 651 | Cc1cnc(-c2ccccc2)n1CCNS(=O)(=O)Cc1ccccc1F
68 | 922 | Cc1nc(C(=O)NCC2CCCCC2)c(C)o1
69 | 647 | COc1ccc(C(=O)Nc2c(-c3ccc(F)cc3)nc3cc(C)ccn23)cc1OC
70 | 801 | NC(=O)c1cnn2c3c(cnc12)CCCCCC3
71 | 633 | Cc1cc(Cl)ccc1-n1ncc2c(N3CCN(C)CC3)ncnc21
72 | 651 | Cc1ccc(NS(=O)(=O)c2cc3n(c2)CCCNC3=O)cc1
73 | 639 | Cn1nc(C(=O)N2CC(c3nc(-c4cccs4)no3)C2)ccc1=O
74 | 840 | COc1ccc(CNC(=O)Nc2cc3c(cc2Oc2ccccc2)n(C)c(=O)n3C)cc1
75 | 668 | CCc1nc2cc3c(cc2n1CC(=O)N1C(C)CCCC1C)OCCO3 (stereo not drawn)
76 | 849 | COc1cccc(CNC(=O)Cn2nc3c(Oc4ccc(Cl)cc4)nccn3c2=O)c1
77 | 1090 | CCCCOc1ccc(C(=O)N(Cc2ccc(Br)o2)C2CCS(=O)(=O)C2)cc1 (stereo not drawn)
78 | 1150 | CCOc1ccc(C2Cn3nnc(-c4nc(-c5ccsc5)no4)c3CO2)cc1 (stereo not drawn)
79 | 1110 | CCCCOc1ccc(C(=O)Nc2cc(OC)ccc2OC)cc1
80 | 1170 | c1cnn(-c2ccc(-c3noc(-c4ccc5c(c4)OCO5)n3)cn2)c1
81 | 882 | COCCCNC(=O)c1cc2c(n(-c3ccc(C(C)C)cc3)c1=O)CCCC2=O
82 | 879 | CCn1cc(-c2ccc(Cl)cc2)cc1C(=O)NCCCN1CCCC1=O
83 | 917 | N#Cc1ccc(-c2nc(-c3cccc(-c4ccn[nH]4)c3)no2)cc1
84 | 573 | CCCNc1cc(N2CCC(CCC(=O)N3CCCN(c4ncccn4)CC3)CC2)ncn1
85 | 663 | CCn1nc(C)c(CNC(=O)Nc2cccc(C(=O)OC)c2)c1C
86 | 787 | CC1CCN(c2ccc(-c3noc(CN4CCN(c5ccccc5)CC4)n3)cn2)CC1

Row | SMILES | RP-LC retention time [s]
87 | Cc1cc(OC(C)C(=O)N[C@H](C(=O)O)C(C)C)c2c3c(c(=O)oc2c1)CCCC3 (stereo partly drawn) | 865
88 | COc1ccc2c(c1)C1(CCN(S(=O)(=O)c3ccc(F)c(F)c3)C1)C(=O)N2 (stereo not drawn) | 837
